The target of the experiment is T1, Recombinant human renin (Homo sapiens, UniProt P00797).
T1 construct: isolate the active form (residues 67-406); made in house; host or cells: FreeStyle 293-F cells, transient expression of pcDNA3.1(+)/hREN
T1 sequence (P00797 67-406): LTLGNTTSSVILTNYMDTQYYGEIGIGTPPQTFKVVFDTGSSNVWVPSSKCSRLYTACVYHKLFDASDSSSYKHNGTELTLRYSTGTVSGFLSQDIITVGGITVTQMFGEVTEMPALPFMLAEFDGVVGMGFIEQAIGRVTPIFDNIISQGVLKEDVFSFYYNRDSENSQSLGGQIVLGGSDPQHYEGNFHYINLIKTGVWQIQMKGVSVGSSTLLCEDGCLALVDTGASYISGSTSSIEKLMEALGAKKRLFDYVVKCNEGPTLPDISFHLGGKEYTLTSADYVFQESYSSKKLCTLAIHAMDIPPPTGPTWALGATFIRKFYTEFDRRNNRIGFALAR
In words: In vitro enzymatic activity assay of renin inhibitors (fluorescence, QXL520/HiLyteFluo488 peptide substrate). The following applies: recombinant human renin 3 nM, 1 μM substrate, pre-incubated 10 minutes at 37° C., incubation one hour, pH 7.4, 5% DMSO; read-out: IC50 of Exemplified Compounds Against Renin. Format: biochemical.

`Cc1ccccc1-n1c(-c2ccccc2)c(C(=O)N2CCNCC2)n(CCNS(=O)(=O)c2ccccc2Cl)c1=O` [Example 204, 2-Chloro-N-(2-(2-oxo-4-phenyl-5-(piperazine-1-carbonyl)-3-o-tolyl-2,3-dihydro-1H-imidazol-1-yl)ethyl)benzenesulfonamide]: the IC50 (usually the midpoint of a concentration-inhibition curve) lay in the range of 500 to 1000 nM.

Turning to `Cc1ccccc1-n1c(-c2ccccc2)c(C(=O)N2CCNCC2)n(CCNS(=O)(=O)c2cccc(Cl)c2)c1=O` [Example 205, 3-Chloro-N-(2-(2-oxo-4-phenyl-5-(piperazine-1-carbonyl)-3-o-tolyl-2,3-dihydro-1H-imidazol-1-yl)ethyl)benzenesulfonamide], the concentration for half-maximal inhibition (IC50) is more than 1000 nM.

Consider `Cc1ccccc1-n1c(-c2ccccc2)c(C(=O)N2CCNCC2)n(CCNS(=O)(=O)C(C)C)c1=O` [Example 206, N-(2-(2-Oxo-4-phenyl-5-(piperazine-1-carbonyl)-3-o-tolyl-2,3-dihydro-1H-imidazol-1-yl)ethyl)propane-2-sulfonamide], for which the concentration for half-maximal inhibition (IC50) was in the range of 500 to 1000 nM.

For `Cc1ccccc1-n1c(-c2ccccc2)c(C(=O)N2CCNCC2)n(CCNS(=O)(=O)c2ccc(Cl)cc2)c1=O` [Example 207, 4-Chloro-N-(2-(2-oxo-4-phenyl-5-(piperazine-1-carbonyl)-3-o-tolyl-2,3-dihydro-1H-imidazol-1-yl)ethyl)benzenesulfonamide], the IC50 was more than 1000 nM.

As to `Cc1ccccc1-n1c(-c2ccccc2)c(C(=O)N2CCNCC2)n(CCNS(=O)(=O)c2ccccc2C)c1=O` [Example 208, 2-Methyl-N-(2-(2-oxo-4-phenyl-5-(piperazine-1-carbonyl)-3-o-tolyl-2,3-dihydro-1H-imidazol-1-yl)ethyl)benzenesulfonamide], the IC50 lay in the range of 500 to 1000 nM.

On to `COc1cccc(S(=O)(=O)NCCn2c(C(=O)N3CCNCC3)c(-c3ccccc3)n(-c3ccccc3C)c2=O)c1` [Example 209, 3-Methoxy-N-(2-(2-oxo-4-phenyl-5-(piperazine-1-carbonyl)-3-o-tolyl-2,3-dihydro-1H-imidazol-1-yl)ethyl)benzenesulfonamide], for which the half-inhibitory concentration (IC50) was more than 1000 nM.

As for `COc1ccc(S(=O)(=O)NCCn2c(C(=O)N3CCNCC3)c(-c3ccccc3)n(-c3ccccc3C)c2=O)cc1` [Example 210, 4-Methoxy-N-(2-(2-oxo-4-phenyl-5-(piperazine-1-carbonyl)-3-o-tolyl-2,3-dihydro-1H-imidazol-1-yl)ethyl)benzenesulfonamide], the IC50 was more than 1000 nM.

Regarding `Cc1ccccc1-n1c(-c2ccccc2)c(C(=O)N2CCNCC2)n(CCNC(=O)Nc2ccccc2)c1=O` [Example 211, 1-(2-(2-Oxo-4-phenyl-5-(piperazine-1-carbonyl)-3-o-tolyl-2,3-dihydro-1H-imidazol-1-yl)ethyl)-3-phenylurea], the IC50 lay within 100 to 500 nM.

Consider `Cc1ccccc1-n1c(-c2ccccc2)c(C(=O)N2CCNCC2)n(CCNC(=O)Nc2ccccc2Cl)c1=O` [Example 212, 1-(2-Chlorophenyl)-3-(2-(2-oxo-4-phenyl-5-(piperazine-1-carbonyl)-3-o-tolyl-2,3-dihydro-1H-imidazol-1-yl)ethyl)urea], for which the IC50 fell in the range of 500 to 1000 nM.

Consider `Cc1ccccc1-n1c(-c2ccccc2)c(C(=O)N2CCNCC2)n(CCNC(=O)Nc2ccc(Cl)cc2)c1=O` [Example 213, 1-(4-Chlorophenyl)-3-(2-(2-oxo-4-phenyl-5-(piperazine-1-carbonyl)-3-o-tolyl-2,3-dihydro-1H-imidazol-1-yl)ethyl)urea], for which the IC50 was in the range of 100 to 500 nM.

Consider `COc1ccccc1NC(=O)NCCn1c(C(=O)N2CCNCC2)c(-c2ccccc2)n(-c2ccccc2C)c1=O` [Example 214, 1-(2-Methoxyphenyl)-3-(2-(2-oxo-4-phenyl-5-(piperazine-1-carbonyl)-3-o-tolyl-2,3-dihydro-1H-imidazol-1-yl)ethyl)urea], for which the IC50 lay within 500 to 1000 nM.

For the molecule `COc1cccc(NC(=O)NCCn2c(C(=O)N3CCNCC3)c(-c3ccccc3)n(-c3ccccc3C)c2=O)c1` [Example 215, 1-(3-Methoxyphenyl)-3-(2-(2-oxo-4-phenyl-5-(piperazine-1-carbonyl)-3-o-tolyl-2,3-dihydro-1H-imidazol-1-yl)ethyl)urea], the IC50 was 100 to 500 nM.

With `Cc1ccccc1-n1c(-c2ccccc2)c(C(=O)N2CCNCC2)n(CCNC(=O)NC(C)C)c1=O` [Example 216, 1-Isopropyl-3-(2-(2-oxo-4-phenyl-5-(piperazine-1-carbonyl)-3-o-tolyl-2,3-dihydro-1H-imidazol-1-yl)ethyl)urea], the IC50 is more than 1000 nM.

Turning to `Cc1ccccc1-n1c(-c2ccccc2)c(C(=O)N2CCNCC2)n(CCCNS(=O)(=O)c2ccccc2Cl)c1=O` [Example 217, 2-Chloro-N-(3-(2-oxo-4-phenyl-5-(piperazine-1-carbonyl)-3-o-tolyl-2,3-dihydro-1H-imidazol-1-yl)propyl)benzenesulfonamide], the IC50 was less than 100 nM.

In the case of `Cc1ccccc1-n1c(-c2ccccc2)c(C(=O)N2CCNCC2)n(CCCNS(=O)(=O)c2cccc(Cl)c2)c1=O` [Example 218, 3-Chloro-N-(3-(2-oxo-4-phenyl-5-(piperazine-1-carbonyl)-3-o-tolyl-2,3-dihydro-1H-imidazol-1-yl)propyl)benzenesulfonamide], the half-maximal inhibitory concentration (IC50) was in the range of 100 to 500 nM.

Regarding `Cc1ccccc1-n1c(-c2ccccc2)c(C(=O)N2CCNCC2)n(CCCNS(=O)(=O)c2ccc(Cl)cc2)c1=O` [Example 219, 4-Chloro-N-(3-(2-oxo-4-phenyl-5-(piperazine-1-carbonyl)-3-o-tolyl-2,3-dihydro-1H-imidazol-1-yl)propyl)benzenesulfonamide], the 50% inhibitory concentration (IC50) lay in the range of 100 to 500 nM.

For the molecule `Cc1ccccc1-n1c(-c2ccccc2)c(C(=O)N2CCNCC2)n(CCCNS(=O)(=O)c2ccccc2C)c1=O` [Example 220, 2-Methyl-N-(3-(2-oxo-4-phenyl-5-(piperazine-1-carbonyl)-3-o-tolyl-2,3-dihydro-1H-imidazol-1-yl)propyl)benzenesulfonamide], the half-maximal inhibitory concentration (IC50) was less than 100 nM.

For the molecule `COc1cccc(S(=O)(=O)NCCCn2c(C(=O)N3CCNCC3)c(-c3ccccc3)n(-c3ccccc3C)c2=O)c1` [Example 221, 3-Methoxy-N-(3-(2-oxo-4-phenyl-5-(piperazine-1-carbonyl)-3-o-tolyl-2,3-dihydro-1H-imidazol-1-yl)propyl)benzenesulfonamide], the concentration for half-maximal inhibition (IC50) fell in the range of 100 to 500 nM.

Turning to `COc1ccc(S(=O)(=O)NCCCn2c(C(=O)N3CCNCC3)c(-c3ccccc3)n(-c3ccccc3C)c2=O)cc1` [Example 222, 4-Methoxy-N-(3-(2-oxo-4-phenyl-5-(piperazine-1-carbonyl)-3-o-tolyl-2,3-dihydro-1H-imidazol-1-yl)propyl)benzenesulfonamide], the half-inhibitory concentration (IC50) lay within 100 to 500 nM.

`Cc1ccccc1-n1c(-c2ccccc2)c(C(=O)N2CCNCC2)n(CCCNC(=O)Nc2ccccc2)c1=O` [Example 223, 1-(3-(2-Oxo-4-phenyl-5-(piperazine-1-carbonyl)-3-o-tolyl-2,3-dihydro-1H-imidazol-1-yl)propyl)-3-phenylurea]: the half-maximal inhibitory concentration (IC50) is 500 to 1000 nM.

In the case of `Cc1ccccc1-n1c(-c2ccccc2)c(C(=O)N2CCNCC2)n(CCCNC(=O)Nc2ccccc2Cl)c1=O` [Example 224, 1-(2-Chlorophenyl)-3-(3-(2-oxo-4-phenyl-5-(piperazine-1-carbonyl)-3-o-tolyl-2,3-dihydro-1H-imidazol-1-yl)propyl)urea], the IC50 lay within 100 to 500 nM.

`COc1ccccc1NC(=O)NCCCn1c(C(=O)N2CCNCC2)c(-c2ccccc2)n(-c2ccccc2C)c1=O` [Example 225, 1-(2-Methoxyphenyl)-3-(3-(2-oxo-4-phenyl-5-(piperazine-1-carbonyl)-3-o-tolyl-2,3-dihydro-1H-imidazol-1-yl)propyl)urea]: the IC50 was 100 to 500 nM.

For the molecule `COc1cccc(NC(=O)NCCCn2c(C(=O)N3CCNCC3)c(-c3ccccc3)n(-c3ccccc3C)c2=O)c1` [Example 226, 1-(3-Methoxyphenyl)-3-(3-(2-oxo-4-phenyl-5-(piperazine-1-carbonyl)-3-o-tolyl-2,3-dihydro-1H-imidazol-1-yl)propyl)urea], the IC50 lay within 100 to 500 nM.

`Cc1ccccc1-n1c(-c2ccccc2)c(C(=O)N2CCNCC2)n(CCCNC(=O)NC(C)C)c1=O` [Example 227, 1-Isopropyl-3-(3-(2-oxo-4-phenyl-5-(piperazine-1-carbonyl)-3-o-tolyl-2,3-dihydro-1H-imidazol-1-yl)propyl)urea]: the 50% inhibitory concentration (IC50) is more than 1000 nM.

As to `COc1ccc(NC(=O)NCCn2c(C(=O)N3CCNCC3)c(-c3ccccc3)n(-c3ccccc3C)c2=O)cc1` [Example 228, 1-(4-Methoxyphenyl)-3-(2-(2-oxo-4-phenyl-5-(piperazine-1-carbonyl)-3-o-tolyl-2,3-dihydro-1H-imidazol-1-yl)ethyl)urea], the IC50 fell in the range of 500 to 1000 nM.

`Cc1ccccc1-n1c(-c2ccccc2)c(C(=O)N2CCNCC2)n(CCCNS(=O)(=O)c2ccccc2F)c1=O` [Example 229, 2-Fluoro-N-(3-(2-oxo-4-phenyl-5-(piperazine-1-carbonyl)-3-o-tolyl-2,3-dihydro-1H-imidazol-1-yl)propyl)benzenesulfonamide]: the IC50 was 500 to 1000 nM.

As to `Cc1ccccc1-n1c(-c2ccccc2)c(C(=O)N2CCNCC2)n(CCNC(=O)c2ccccc2F)c1=O` [Example 230, 2-Fluoro-N-(2-(2-oxo-4-phenyl-5-(piperazine-1-carbonyl)-3-o-tolyl-2,3-dihydro-1H-imidazol-1-yl)ethyl)benzamide], the IC50 is more than 1000 nM.

Consider `Cc1ccccc1-n1c(-c2ccccc2)c(C(=O)N2CCNCC2)n(CCNC(=O)c2ccccc2Cl)c1=O` [Example 231, 2-Chloro-N-(2-(2-oxo-4-phenyl-5-(piperazine-1-carbonyl)-3-o-tolyl-2,3-dihydro-1H-imidazol-1-yl)ethyl)benzamide], for which the concentration for half-maximal inhibition (IC50) is more than 1000 nM.

The values above are taken from US8148367B2 (Takeda Pharmaceutical Company Limited, priority 2008, dated 2012).
